IC50 data for one compound are collected here from publication PMC5138282, “Glyphosate-Resistant Parthenium hysterophorus in the Caribbean Islands: Non Target Site Resistance and Target Site Resistance in Relation to Resistance Levels” (Frontiers in Plant Science, 2016).

Each structure is given as a SMILES string. Like-named read-outs stand apart in the source and are kept apart here.

For test [1], the system named is 5-enolpyruvylshikimate-3-phosphate synthase (EPSPS), P. hysterophorus accessions from Dominican Republic. The following applies: read-out: I50 (μM)^a, natural mutant, native extract, other EPSPS alleles/copies not excluded, buffer as for Cu-S, stated gain. The source says: phosphate release (EnzCheck phosphate assay kit), leaf extract on 5-enolpyruvylshikimate-3-phosphate synthase (EPSPS), P. hysterophorus accessions from Dominican Republic

Test [2] has the same test system. The experiment in a line: phosphate release (EnzCheck phosphate assay kit), leaf extract. The test is classed as biochemical, Parthenium hysterophorus. The following applies: buffer as for Cu-S, read-out: I50 (μM)^a.
Test [3] relates to 5-enolpyruvylshikimate-3-phosphate synthase (EPSPS), P. hysterophorus accessions from Cuba. The following applies: read-out: I50 (μM)^a; accession Cu-R1; natural mutant, native extract, other EPSPS alleles/copies not excluded; buffer as for Cu-S; stated gain. The source says: phosphate release (EnzCheck phosphate assay kit), leaf extract on 5-enolpyruvylshikimate-3-phosphate synthase (EPSPS), P. hysterophorus accessions from Cuba

For test [4] the test system is unchanged. Put plainly: phosphate release (EnzCheck phosphate assay kit), leaf extract. Format: biochemical, Parthenium hysterophorus. The following applies: read-out: I50 (μM)^a.

With `O=C(O)CNCP(=O)(O)O` [glyphosate, (N-phosphonomethyl)-glycine], the IC50 was 468 ± 22 µM in test [1] (accession Do-R1); 411 ± 26.1 µM in test [1] (accession Do-R2); 22.6 ± 1.5 µM in test [2] (accession Do-R3 (resistant plants, no Pro106 change)); 20.8 ± 6.1 µM in test [2] (accession Do-R4 (resistant plants, no Pro106 change)); 18.5 ± 5.7 µM in test [2] (accession Do-S (susceptible)); 646 ± 35.8 µM in test [3]. Besides, the IC50 in test [4] (accession Cu-R2 (resistant plants, no Pro106 change), buffer as for Cu-S) was determined as 18.9 ± 1.4 µM; in test [4] (accession Cu-R3 (resistant plants, no Pro106 change), buffer as for Cu-S) it was 17.4 ± 2.8 µM; in test [4] (accession Cu-S (susceptible), 100 mM MOPS, 1 mM MgCl2, 10% glycerol, 2 mM sodium molybdate, 200 mM NaF), 13.6 ± 2.2 µM.
